Experimental data: patent US11292767B2, “Heterocyclic inhibitors of MCT4” (Vettore, LLC, priority 2016, dated 2022)

Experiments:
[1] = molecular target: MCT4 (Homo sapiens (Human), UniProt O15427); assay: Assay 3: MCT4-mediated lactate transport in MDA-MB-231 breast cancer cells; type: cell-based; conditions: MDA-MB-231 cells
Description: (§1) Preparing BCECF-Loaded Cells
(§2) 10 µL of a 30 mM DMSO stock of BCECF-AM ester (Life Technologies) is added and the cells are incubated at 37° C. for 5 min. The cells are pelleted (300 g, 5 min), washed once with 1 mL Tyrode's Solution, pH 7.4, re-pelleted (300 g, 5 min), and resuspended in 1 mL Tyrode's Solution, pH 7.4.
MCT4 activity may be assessed by monitoring the intracellular pH change that accompanies lactate/proton symport, using the pH-sensitive fluorescent dye 2′,7′-bis-(carboxyethyl)-5(6)-carboxyfluorescein (BCECF), in a manner similar to that previously reported for MCT1 and MCT4. The following is an exemplary procedure for assaying MCT4 activity of the compounds of Formula (I).

[2] = molecular target: MCT1 (Homo sapiens (Human), UniProt P53985); assay: Assay 4: MCT1-mediated lactate transport in BT20 breast cancer cells; type: cell-based
Description: as §1, §2
Assay 4: MCT1-Mediated Lactate Transport in BT20 Breast Cancer Cells.
Preparation of BCECF loaded cells are as described for Assay 1. Lactate transport assay is as described for Assay 1, except 10 mM L-lactate (rather than 50 mM) is added.

[3] = Pharmacokinetic assay in rat (IV 3 mg/kg, PO 10 mg/kg); type: in vivo; conditions: male, Sprague-Dawley, plasma, read-out: Rat F (%)
Excerpt: (§3) Pharmacokinetic Assays in Mouse and Rat
(§4) The following are assays that may be used to evaluate the pharmacokinetic properties of Formula (I) in mouse or rat. The assays follow a common procedure recited below.
(§5) 1. […] For PO (oral gavage), DMSO/PEG400 (10:90). Formulations freshly prepared on the day of dosing or prior to dosing. Storage at room temperature.
(§6) 2. Test Species: For Mouse: Male CD1 strain, approximately 6-8 weeks in age, approximately 20-30 g. For Rat: Male Sprague-Dawley strain, approximately 6-8 weeks in age, approximately 200-300 g.
(§7) 3. Dose Level: For IV, 3 mg/kg. For PO, 10 mg/kg.
(§8) 4. Number of animals: 3 per assay.
(§9) 5. PK time points: For IV (plasma): 5 min, 15 min, 1, 2, 4, 6, 8, 24 h post dose. For PO (plasma): 15 min, 30 min, 1, 2, 4, 6, 8, 24 h post dose.
(§10) 6. Blood Sample Collection and Processing. Blood was collected (˜0.2 mL per time point) from jugular vein. Blood of each sample was transferred into plastic micro centrifuge tubes containing anticoagulant of EDTA-K2. Blood samples were centrifuged at 2,000 g for 5 minutes at 4° C. to obtain plasma.
(§11) 7. Samples Analysis: Plasma samples were analyzed using LC/MS/MS method, and pharmacokinetic parameters (half-life: t1/2; oral bioavailability: F; volume of distribution: Vss).

[4] = system: CFA-induced arthritis; assay: Adjuvant-induced arthritis model in rat: Difference of Weight Bearing test (DWB); type: in vivo; conditions: SD rat, PO 3 days post CFA, compared to dexamethasone
[5] = Metabolic stability in human liver microsomes (in vitro t1/2); type: in vitro ADME; conditions: human liver microsomes 0.5 mg/mL, 2 μM compound; for Human microsome % 60 min: % remaining at 60 min
Summary of the method: (§12)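 Liver microsomes (0.5 mg/mL final) were incubated with 2 μM test compound in the presence of NADPH, with aliquots taken at 0, 15, 30, 45 and 60 min. Parent remaining was quantified by LC-MS/MS. k was taken from the slope of ln(% remaining) versus time, and t1/2 = −0.693/k.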

[6] = Metabolic stability in rat liver microsomes (in vitro t1/2); type: in vitro ADME; conditions: rat liver microsomes 0.5 mg/mL, 2 μM compound; for Rat microsome % 60 min: % remaining at 60 min
Summary of the method: as §12

[7] = Metabolic stability in mouse liver microsomes (in vitro t1/2); type: in vitro ADME; conditions: mouse liver microsomes 0.5 mg/mL, 2 μM compound; for Mouse microsome % 60 min: % remaining at 60 min; for Mouse microsome t1/2, min: in vitro t1/2
Summary of the method: as §12

[8] = Pharmacokinetic assay in mouse (IV 3 mg/kg, PO 10 mg/kg); type: in vivo; conditions: male, CD1, mouse, plasma, read-out: Mouse F (%)
Excerpt: as §3, §4, §5, §6, §7, §8, §9, §10, §11

[9] = system: CFA-induced arthritis; assay: Adjuvant-induced arthritis model in rat: Mechanical Allodynia test (MA); type: in vivo; conditions: SD rat, PO 3 days post CFA, compared to dexamethasone

Chain of MCT1 (P53985 whole entry): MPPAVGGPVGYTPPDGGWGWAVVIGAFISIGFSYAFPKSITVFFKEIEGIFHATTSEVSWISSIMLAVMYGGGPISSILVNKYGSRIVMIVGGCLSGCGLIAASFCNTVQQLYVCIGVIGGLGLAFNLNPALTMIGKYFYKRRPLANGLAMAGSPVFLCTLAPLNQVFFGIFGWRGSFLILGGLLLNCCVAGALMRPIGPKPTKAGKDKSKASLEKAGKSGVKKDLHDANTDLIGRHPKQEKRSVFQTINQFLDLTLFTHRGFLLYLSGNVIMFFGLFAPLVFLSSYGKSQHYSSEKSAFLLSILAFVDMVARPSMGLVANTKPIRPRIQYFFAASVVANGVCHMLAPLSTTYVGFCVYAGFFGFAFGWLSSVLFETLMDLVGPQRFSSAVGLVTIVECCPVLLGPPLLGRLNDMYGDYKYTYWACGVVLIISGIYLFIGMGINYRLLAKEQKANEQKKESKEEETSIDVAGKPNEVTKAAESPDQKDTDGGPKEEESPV
Chain of MCT1 (P35613 140-385 partner): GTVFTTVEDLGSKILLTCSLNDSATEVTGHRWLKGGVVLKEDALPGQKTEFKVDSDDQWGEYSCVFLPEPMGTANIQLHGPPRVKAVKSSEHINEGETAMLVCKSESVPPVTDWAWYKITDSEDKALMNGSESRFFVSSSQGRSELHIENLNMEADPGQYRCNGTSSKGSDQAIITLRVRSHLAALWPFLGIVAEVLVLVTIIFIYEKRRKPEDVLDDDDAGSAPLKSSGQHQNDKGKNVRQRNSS
Chain of MCT4 (O15427 whole entry, looked up): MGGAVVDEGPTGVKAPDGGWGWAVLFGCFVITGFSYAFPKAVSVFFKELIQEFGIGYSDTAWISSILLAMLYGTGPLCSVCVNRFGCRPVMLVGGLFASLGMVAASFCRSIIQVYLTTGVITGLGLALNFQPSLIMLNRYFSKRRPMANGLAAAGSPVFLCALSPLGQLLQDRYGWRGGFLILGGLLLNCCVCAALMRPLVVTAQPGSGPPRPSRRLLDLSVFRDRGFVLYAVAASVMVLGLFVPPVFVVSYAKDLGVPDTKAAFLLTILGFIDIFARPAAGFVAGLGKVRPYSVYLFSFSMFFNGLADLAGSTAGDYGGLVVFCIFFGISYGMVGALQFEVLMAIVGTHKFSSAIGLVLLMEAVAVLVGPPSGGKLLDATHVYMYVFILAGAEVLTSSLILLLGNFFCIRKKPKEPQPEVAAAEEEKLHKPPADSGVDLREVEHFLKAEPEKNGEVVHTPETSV
Chain of MCT4 (P35613 whole entry partner, looked up): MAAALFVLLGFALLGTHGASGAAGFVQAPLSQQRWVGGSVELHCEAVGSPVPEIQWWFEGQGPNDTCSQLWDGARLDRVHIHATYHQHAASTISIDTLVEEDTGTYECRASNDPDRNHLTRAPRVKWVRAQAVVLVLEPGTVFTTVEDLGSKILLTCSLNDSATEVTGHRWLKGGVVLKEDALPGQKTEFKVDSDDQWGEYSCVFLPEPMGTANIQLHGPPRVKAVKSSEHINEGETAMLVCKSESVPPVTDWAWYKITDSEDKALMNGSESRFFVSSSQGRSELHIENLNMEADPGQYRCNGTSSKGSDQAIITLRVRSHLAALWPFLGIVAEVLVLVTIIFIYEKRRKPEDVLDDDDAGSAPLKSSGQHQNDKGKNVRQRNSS

SMILES: CC(C)(OCc1cc(-c2cc(OC3CC3)cs2)n(Cc2ccccc2Cl)n1)C(=O)O [Example 130, 2-([1-[(2-Chlorophenyl)methyl]-5-(4-cyclopropoxythien-2-yl)-1H-pyrazol-3-yl]methoxy)-2-methylpropanoic acid]
- IC50 [1]: 98 nM
- IC50 ([2]; lactate transport (Table 27)): 55 nM

SMILES: CCCn1ncc2ccc(-c3cc(COC(C)(C)C(=O)O)nn3-c3ccccc3N3CCCC3)cc21 [Example 250, 2-Methyl-2-([5-(1-propyl-1H-indazol-6-yl)-1-[2-(pyrrolidin-1-yl)phenyl]-1H-pyrazol-3-yl]methoxy]propanoic acid]
- IC50 [1]: 1.3 nM
- IC50 ([2]; lactate transport (Table 27)): 41000 nM

SMILES: CC(C)COc1cccc(-c2cc(COC(C)(C)C(=O)O)nn2-c2cccc3cnn(C)c23)c1 [Example 170, 2-methyl-2-([1-(1-methyl-1H-indazol-7-yl)-5-[3-(2-methylpropoxy)phenyl]-1H-pyrazol-3-yl]methoxy]propanoic acid]
- bioavailability [3]: 18%
- Difference in Weight Bearing, Minimal Efficacious Dose [4]: 3 mg/kg
- Human microsome % 60 min [5]: 87%
- Rat microsome % 60 min [6]: 95%
- Rat microsome t1/2, min ([6]; in vitro t1/2): ∞
- Mouse microsome % 60 min [7]: 99%
- Mouse microsome t1/2, min [7]: ∞
- bioavailability [8]: 100%
- Mechanical Allodynia (Von Frey), Minimal Efficacious Dose [9]: 3 mg/kg

SMILES: CCn1ncc2ccc(-c3cc(CO[C@](C)(CC)C(=O)O)nn3-c3ccccc3N3CCCC3)cc21 [Example 268, (2R)-2-([5-(1-ethyl-1H-indazol-6-yl)-1-[2-(pyrrolidin-1-yl)phenyl]-1H-pyrazol-3-yl]methoxy)-2-methylbutanoic acid]
- bioavailability [3]: 57%
- Difference in Weight Bearing, Minimal Efficacious Dose [4]: 1 mg/kg
- bioavailability [8]: 77%
- Mechanical Allodynia (Von Frey), Minimal Efficacious Dose [9]: 1 mg/kg

SMILES: CCn1ncc2ccc(-c3cc(COC(C)(C)C(=O)O)nn3Cc3ccccc3Cl)cc21 [Example 150, 2-([1-[(2-Chlorophenyl)methyl]-5-(1-ethyl-1H-indazol-6-yl)-1H-pyrazol-3-yl]-methoxy)-2-methylpropanoic Acid]
- bioavailability [3]: 43%
- Difference in Weight Bearing, Minimal Efficacious Dose [4]: 10 mg/kg
- Human microsome % 60 min [5]: 90%
- Rat microsome % 60 min [6]: 98%
- Mouse microsome t1/2, min [7]: ∞
- bioavailability [8]: 89%
- Mechanical Allodynia (Von Frey), Minimal Efficacious Dose [9]: 10 mg/kg

SMILES: COc1cccc(-c2cc(COC(C)(C)C(=O)O)nn2Cc2ccccc2Cl)c1 [Example 14, 2-([1-[(2-Chlorophenyl)methyl]-5-(3-methoxyphenyl)1H-pyrazol-3-yl]methoxy)-2-methylpropanoic acid]
- bioavailability [3]: 64%
- Difference in Weight Bearing, Minimal Efficacious Dose [4]: 30 mg/kg
- Human microsome % 60 min [5]: 82%
- Mouse microsome % 60 min [7]: 95%
- bioavailability [8]: 100%
- IC50 ([2]; lactate transport (Table 26)): > 100000 nM
- IC50 ([2]; lactate transport (Table 27)): > 100000 nM
- Mechanical Allodynia (Von Frey), Minimal Efficacious Dose [9]: 30 mg/kg

SMILES: CC(C)(OCc1cc(-c2cccc(OC3CCC3)c2)n(-c2ccccc2N2CCC2)n1)C(=O)O [Example 260, 2-([1-[2-(Azetidin-1-yl)phenyl]-5-(3-cyclobutoxyphenyl)-1H-pyrazol-3-yl]methoxy)-2-methylpropanoic acid]
- bioavailability [3]: 85%
- Difference in Weight Bearing, Minimal Efficacious Dose [4]: 1 mg/kg
- bioavailability [8]: 86%
- Mechanical Allodynia (Von Frey), Minimal Efficacious Dose [9]: 1 mg/kg

SMILES: CCCn1ncc2ccc(-c3cc(CO[C@](C)(CC)C(=O)O)nn3-c3ccccc3N3CCC3)cc21 [Example 267, (2R)-2-([1-[2-(azetidin-1-yl)phenyl]-5-(1-propyl-1H-indazol-6-yl)-1H-pyrazol-3-yl]methoxy)-2-methylbutanoic acid]
- bioavailability [3]: 54%
- Difference in Weight Bearing, Minimal Efficacious Dose [4]: 3 mg/kg
- bioavailability [8]: 64%
- Mechanical Allodynia (Von Frey), Minimal Efficacious Dose [9]: 3 mg/kg

SMILES: CC(C)(OCc1cc(-c2cccc(OC3CC3)c2)n(-c2ccccc2Cl)n1)C(=O)O [Example 110, 2-([1-(2-Chlorophenyl)-5-(3-cyclo-propoxyphenyl)-1H-pyrazol-3-yl]methoxy)-2-methylpropanoic acid]
- bioavailability [3]: 84%
- Difference in Weight Bearing, Minimal Efficacious Dose [4]: 10 mg/kg
- Human microsome % 60 min [5]: 99%
- Rat microsome % 60 min [6]: 94%
- Mouse microsome % 60 min [7]: 86%
- bioavailability [8]: 100%
- Mechanical Allodynia (Von Frey), Minimal Efficacious Dose [9]: 10 mg/kg

SMILES: CCn1ncc2ccc(-c3cc(CO[C@](C)(CC)C(=O)O)nn3Cc3ccccc3Cl)cc21 [Example 220, (2R)-2-([1-[(2-chlorophenyl)methyl]-5-(1-ethyl-1H-indazol-6-yl)-1H-pyrazol-3-yl]methoxy)-2-methylbutanoic acid]
- bioavailability [3]: 29%
- Difference in Weight Bearing, Minimal Efficacious Dose [4]: 3 mg/kg
- Human microsome t1/2, min ([5]; in vitro t1/2): ∞
- Rat microsome % 60 min [6]: 86%
- bioavailability [8]: 100%
- Mechanical Allodynia (Von Frey), Minimal Efficacious Dose [9]: 3 mg/kg

SMILES: CC(C)(OCc1cc(-c2cccc(OC3CC3)c2)n(-c2ccccc2N2CCC2)n1)C(=O)O [Example 232, 2-([1-[2-(Azetidin-1-yl)phenyl]-5-(3-cyclopropoxyphenyl)-1H-pyrazol-3-yl]-methoxy)-2-methylpropanoic acid]
- bioavailability [3]: 52%
- Difference in Weight Bearing, Minimal Efficacious Dose [4]: 1 mg/kg
- Human microsome % 60 min [5]: 65%
- Rat microsome % 60 min [6]: 50%
- Mouse microsome % 60 min [7]: 59%
- bioavailability [8]: 56%
- Mechanical Allodynia (Von Frey), Minimal Efficacious Dose [9]: 1 mg/kg

SMILES: CCn1ncc2ccc(-c3cc(COC(C)(C)C(=O)O)nn3-c3ccccc3N3CCCC3)cc21 [Example 229, 2-([5-(1-ethyl-1H-indazol-6-yl)-1-[2-(pyrrolidin-1-yl)phenyl]-1H-pyrazol-3-yl]methoxy)-2-methylpropanoic acid]
- bioavailability [3]: 100%
- Difference in Weight Bearing, Minimal Efficacious Dose [4]: 3 mg/kg
- Human microsome % 60 min [5]: 64%
- Rat microsome % 60 min [6]: 69%
- Mouse microsome % 60 min [7]: 81%
- bioavailability [8]: 100%
- Mechanical Allodynia (Von Frey), Minimal Efficacious Dose [9]: 3 mg/kg
